These results are taken from US5244907A, “Carbocyclic carboxylic acid amides and esters of azabicyclic compounds as gastric prokinetic, antiemetic, anxiolytic and antiarrhythmic agents” (A. H. Robins Company, Incorporated, priority 1992, dated 1993).

The test system of experiment [1] is gastric emptying of test meal. Briefly: Gastric emptying of a test meal in fasted rats. As to conditions: Rattus norvegicus, 1 h; for change in vivo at 10 mg/kg: 10 mg/kg IP; for change in vivo at 9 mg/kg: 9 mg/kg IP (printed 09). The class given is in vivo. The procedure:
B. Effect of Invention Compounds on Gastric Emptying of a Test Meal in Fasted Rats
The procedure used to test compounds of the present invention for gastric motility enhancing activity is that of Droppleman et al., J. Pharmacol. Methods, 4,227(1980).
Each animal is dosed intraperitoneally (9 or 10 mg/kg) with a test compound or control. After 30 minutes each animal is given 3 mL of a methylcellulose-based test meal formulation. Sixty minutes after administration of the test meal, each animal is sacrificed by cervical dislocation, and the stomach is removed and weighed. The stomach is cut open, rinsed and dried, and reweighed. This difference between the full and empty weights (amount of meal remaining in stomach) is subtracted from the weight of the original test meal to determine the meal amount emptied from the stomach during the test period.
^1 % change in gastric emptying of test meal in rats (dose, mg/kg IP)

In experiment [2] the test system is cisplatin-induced emesis. Description: Cisplatin-induced emesis in dogs. The class given is in vivo. The conditions noted are these: Canis lupus familiaris; 1 mg/kg IV; cisplatin 3.0 mg/kg IV; 5 hours; read-out: Antiemetic: % change in emetic episodes in dogs induced by cisplatin. The procedure: A. Effect of Invention Compounds on Cisplatin-induced Emesis in Dogs
The procedure used to test compounds of the present invention for antiemetic properties is a modification of the method of Gylys et al., Res. Commun. Chem. Pathol. Pharm., 23, 61(1979).
Adult, mongrel unfasted dogs of both sexes are randomly assigned into treatment groups, with each treatment group consisting of four dogs. On the dosing day all dogs are given cisplatin, 3.0 mg/kg, intravenously. Sixty minutes later, the dogs in the control treatment group are given deionized water, 0.1 mL/kg intravenously and dogs receiving test compounds are given the test compound in solution (1 mg/kg, IV). All doses are administered as a solution by means of a syringe and needle, and each dog's emetic episodes are recorded for 5 hours after the administration of cisplatin.
^2 % change in emetic episodes in dogs at 1 mg/kg IV induced by […]

In experiment [3] the test system is von Bezold-Jarisch reflex evoked by 5-HT (serotonin). Description: Antagonism of the von Bezold-Jarisch reflex evoked by 5-HT in anaesthetized rats. Type of experiment: in vivo. The conditions noted are these: Rattus norvegicus; 0.0316 mg/kg IV in anesthetized rats; read-out: Antiserotonin: von Bezold-Jarisch reflex % change in serotonin-induced bradycardia. The procedure: F. Antagonism of the von Bezold-Jarisch Reflex
The compounds are evaluated for antagonism of the von Bezold-Jarisch reflex evoked by 5-HT (serotonin) in anaesthetized rats according to the method described in European Patent Application 200-444 (Beecham Group).
Male rats (250-350 g) are anaesthetized with urethane (1.25 g/kg intraperitoneally), and blood pressure and heart rate are recorded as described by Fozard J. R. et al., J. Cardiovasc. Pharmacol. 2, 229-245 (1980). A submaximal dose of 5-HT (usually […]) is given repeatedly by the intravenous route and changes in heart rate quantified. Compounds are given intravenously and the inhibition of the 5-HT evoked response is measured. In addition, the concentration required to reduce the 5-HT evoked response to 50% of the control response (ED50) can be determined.
^3 Von BezoldJarisch reflex % change in serotonininduced bradycardia
at 0.0316 mg/kg IV in anesthesized rats.

Experiment [4] deals with canine Purkinje fibers. Description: Cellular electrophysiologic effects in canine Purkinje fibers in vitro. The conditions noted are these: Canis lupus familiaris, 20 min, 10^-4 M, after 20 min exposure, read-out: increase in action potential duration at 90% repolarization (APD90). Type of experiment: cell-based, dog (canine). The method, then:
G. Measurement of Cellular Electrophysiologic Effects in Canine Purkinje Fibers in Vitro
Dogs (12-18 kg) were anesthetized with sodium pentobarbital (30 mg/kg IV). The heart of each dog was rapidly removed through a right lateral thoracotomy and placed in a chilled, oxygenated Tyrode's solution. Purkinje fibers from the right and left ventricles were excised and mounted in a Lucite chamber. The tissue was superfused at a rate of 10-15 mL/min with Tyrode's solution. The temperature of the superfused Tyrode's was maintained at 37° C. and gassed with 95% oxygen-5% carbon dioxide mixture.
The Purkinje fibers were stimulated (paced at cycle length of 400 to 1000 msec) with a silver bipolar wire electrode placed on the surface of the tissue. Transmembrane action potentials were recorded with a glass capillary microelectrodes filled with 3M KCl. […] The measurements derived from the action potential were Vmax (upstroke velocity), APD50 (action potential duration at 50% repolarization), and APD90 (action potential duration at 90% repolarization) as previously described (Bigger and Mandel, 1970; Wu and Hoffman, 1987). […] Measurements of the action potential parameters were recorded after 20 min of test drug exposure. […] Changes in the action potential measurements produced by the test compound were analyzed for statistical significance using a paired-t test. […]

For experiment [5], the system named is exploratory light/dark behavior. Briefly: Anxiolytic test, exploratory light/dark (mice). As to conditions: 10 mg/kg IP, significant increase as compared with the controls (30%). The class given is in vivo. The method, then: Exploratory Light/Dark (mice)
This method has been described by Young and Johnson (1988) and is a modification of the procedure described by Costall and Naylor (1988). A two compartment light-dark activity monitoring device (Digiscan Model RXYZCM16, Omnitech Electronics Inc., Columbus, Ohio) is used. A 90W light source located 30 cm above the box provides light to the lit portion of the apparatus. Behavioral testing is conducted in a sound-attenuated, darkened room illuminated with red light (25W red bulb) only.
Each animal (mouse) receives a dose or doses of either the test, reference, or control article. The animal is placed at the center of the illuminated area and the behavioral activity tallied over a 5 minute period by use of the Digiscan analyzer. Behavioral variables recorded included: the time spent in the lit and dark areas, the number of rearings in the lit and dark areas, the number of locomotor activity counts in the lit and dark areas, the number of transitions between the lit and dark and lit areas, the latency to make the first transition from the lit area to the dark area, rearing time in the lit and dark areas, locomotor time in the lit and dark areas, and resting time in the lit and dark areas. Appropriate statistical analyses for each measure are performed. […]

With `COc1cc(N)c(Cl)cc1C(=O)NCC12CCCN(CC1)C2` (stereo not drawn) [Example 1, 4-Amino-N-(1-azabicyclo[3.2.1]oct-5ylmethyl)-5-chloro-2-methoxybenzamide], in experiment [1], the change in vivo at 10 mg/kg is 47%. Moreover, the change in vivo at 1 mg/kg in experiment [2] is -76%.

On to `CNc1cc(OC)c(C(=O)NCC23CCCN(CC2)C3)cc1Cl` (stereo not drawn) [Example 2], for which the change in vivo at 9 mg/kg in experiment [1] came out at 62%. The change in vivo at 1 mg/kg in experiment [2] was -63%.

Consider `COCCOc1cc(N)c(Cl)cc1C(=O)NCC12CCCN(CC1)C2` (stereo not drawn) [Example 3], for which the change in vivo at 10 mg/kg in experiment [1] came to 31%. In experiment [2], the change in vivo at 1 mg/kg is -51%. In experiment [3], the change in vivo at 0.0316 mg/kg was -74%.

With `COc1cc(N)c(Cl)cc1C(=O)NCC12CCCN(CCC1)C2` [Example 4, 4-Amino-N-(1-azabicyclo[3.3.1]non-5-ylmethyl)-5-chloro-2-methoxybenzamide], the change in vivo at 10 mg/kg in experiment [1] worked out at 31%. For the same compound, in experiment [2], the change in vivo at 1 mg/kg is -62%. Moreover, the change in vivo at 0.0316 mg/kg in experiment [3] was -32%.

On to `CNc1cc(OC)c(C(=O)NCC23CCCN(CCC2)C3)cc1Cl` [Example 5, N-(1-Azabicyclo[3.3.1]non-5-ylmethyl)-5-chloro-2-methoxy-4-(methylamino)benzamide], for which the change in vivo at 9 mg/kg in experiment [1] amounted to 58%. In addition, the change in vivo at 1 mg/kg in experiment [2] was -71%.

Turning to `COCCOc1cc(N)c(Cl)cc1C(=O)NCC12CCCN(CCC1)C2` [Example 6, 4-Amino-N-(1-azabicyclo[3.3.1]non-5-ylmethyl)-5-chloro-2-(2-methoxyethoxy)benzamide], the change in vivo at 0.0316 mg/kg in experiment [3] is -30%.

Regarding `Cn1cc(C(=O)NCC23CCCN(CCC2)C3)c2ccccc21` [Example 8], in experiment [2], the change in vivo at 1 mg/kg is -49%.

For `CS(=O)(=O)Nc1ccc(C(=O)NCC23CCCN(CCC2)C3)cc1` [Example 9, N-(1-Azabicyclo[3.3.1]non-5-ylmethyl)-4-[(methylsulfonyl)amino]benzamide], the activation at 100 µM in experiment [4] worked out at 8.5%.

For `COc1cc(N)c(Cl)cc1C(=O)OCC12CCCN(CC1)C2` (stereo not drawn) [Example 10, 4-Amino-5-chloro-2-methoxybenzoic acid 1-azabicyclo[3.2.1]oct-5-ylmethyl ester], the change in vivo at 10 mg/kg in experiment [1] is 47%. Moreover, the change in vivo at 1 mg/kg in experiment [2] is -82%. The change in vivo at 0.0316 mg/kg in experiment [3] was -82%.

With `O=C(OCC12CCCN(CC1)C2)c1c[nH]c2ccccc12` (stereo not drawn) [Example 11, 1H-Indole-3-carboxylic acid 1-azabicyclo[3.2.1]oct-5-ylmethyl ester], the change in vivo at 1 mg/kg in experiment [2] was -85%. Further, the change in vivo at 0.0316 mg/kg in experiment [3] is -86%.

For the compound `Cn1cc(C(=O)OCC23CCCN(CC2)C3)c2ccccc21` (stereo not drawn) [Example 12, 1-Methyl-1H-indole-3-carboxylic acid 1-azabicyclo[3.2.1]oct-5-ylmethyl ester], the “time spent in the lit area” value in experiment [5] came out at 58%. The change in vivo at 0.0316 mg/kg in experiment [3] is -81%.

For the compound `COc1cc(N)c(Cl)cc1C(=O)OCC12CCCN(CCC1)C2` [Example 13, 4-Amino-5-chloro-2-methoxybenzoic acid 1-azabicyclo[3.3.1]non-5-ylmethyl ester], in experiment [1], the change in vivo at 9 mg/kg amounted to 41%. Further, the change in vivo at 1 mg/kg in experiment [2] was -50%. The change in vivo at 0.0316 mg/kg in experiment [3] is -23%.

On to `O=C(OCC12CCCN(CCC1)C2)c1c[nH]c2ccccc12` [Example 14, 1H-Indole-3-carboxylic acid 1-azabicyclo[3.3.1]non-5-ylmethyl ester], for which the change in vivo at 9 mg/kg in experiment [1] worked out at 10%. Also, in experiment [3], the change in vivo at 0.0316 mg/kg was -0.3%.

For the compound `Cn1nc(C(=O)OCC23CCCN(CC2)C3)c2ccccc21` (stereo not drawn) [Example 15, 1-Methyl-1H-indazole-3-carboxylic acid 1-azabicyclo[3.2.1]oct-5-ylmethyl ester], in experiment [1], the change in vivo at 10 mg/kg amounted to 31%. The change in vivo at 1 mg/kg in experiment [2] was -93%. In experiment [3], the change in vivo at 0.0316 mg/kg is -72%.
